Experimental data published in ChEMBL document CHEMBL1201862, “PubChem BioAssay data set” (2004).
Counter-ions that a name gives are not always drawn.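 How tested: cells in 96-well plates exposed to compound for 48 hours at five concentrations. The concentration for 50% growth inhibition is given as GI50.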 The source made the active and inactive calls. Rule as the data show it: active = GI50 up to about 1.1 µM and inactive = higher.

Experiments:
Assay in all cases: DTP human tumour cell line panel, 48 h
A498 = tested on: A498
SF-539 = tested on: SF-539
IGROV-1 = tested on: IGROV-1
SN12C = tested on: SN12C
LOX IMVI = tested on: LOX IMVI
CAKI-1 = tested on: CAKI-1
HOP-62 = tested on: HOP-62
HOP-92 = tested on: HOP-92
UACC-62 = tested on: UACC-62
Hs-578T = tested on: Hs-578T
786-0 = tested on: 786-0
MDA-MB-231 = tested on: MDA-MB-231
T47D = tested on: T47D
NCI-H460 = tested on: NCI-H460
UACC-257 = tested on: UACC-257
SW-620 = tested on: SW-620
Malme-3M = tested on: Malme-3M
SNB-19 = tested on: SNB-19
MDA-MB-435 = tested on: MDA-MB-435
NCI-H226 = tested on: NCI-H226

Structure (SMILES)	GI50 (A498)	GI50 (SF-539)	GI50 (IGROV-1)	GI50 (SN12C)	GI50 (LOX IMVI)	GI50 (CAKI-1)	GI50 (HOP-62)	GI50 (HOP-92)	GI50 (UACC-62)	GI50 (Hs-578T)	GI50 (786-0)	GI50 (MDA-MB-231)	GI50 (T47D)	GI50 (NCI-H460)	GI50 (UACC-257)	GI50 (SW-620)	GI50 (Malme-3M)	GI50 (SNB-19)	GI50 (MDA-MB-435)	GI50 (NCI-H226)
c1csc(-c2nn3c(C45CC6CC(CC(C6)C4)C5)nnc3s2)c1	> 100 µM (inactive)	> 100 µM (inactive)	> 100 µM (inactive)	> 100 µM (inactive)	> 100 µM (inactive)	> 100 µM (inactive)	> 100 µM (inactive)	> 100 µM (inactive)	> 100 µM (inactive)	> 100 µM (inactive)	> 100 µM (inactive)	> 100 µM (inactive)	> 100 µM (inactive)	> 100 µM (inactive)	> 100 µM (inactive)	> 100 µM (inactive)	> 100 µM (inactive)	> 100 µM (inactive)	> 100 µM (inactive)	> 100 µM (inactive)
Oc1ccc(Cn2c(-c3ccc(O)cc3)nc3ccccc32)cc1	> 100 µM (inactive)	> 100 µM (inactive)	> 100 µM (inactive)	> 100 µM (inactive)	> 100 µM (inactive)	> 100 µM (inactive)	> 100 µM (inactive)	> 100 µM (inactive)	> 100 µM (inactive)	> 100 µM (inactive)	> 100 µM (inactive)	> 100 µM (inactive)	> 100 µM (inactive)	> 100 µM (inactive)	> 100 µM (inactive)	> 100 µM (inactive)	> 100 µM (inactive)	> 100 µM (inactive)	> 100 µM (inactive)	> 100 µM (inactive)
O=C1C(Br)=CC2(C=C1Br)CCNC1=C2C2=NCCc3c[nH]c(c32)C1=O	1.23 µM (inactive)	0.246 µM (active)	0.153 µM (active)	0.146 µM (active)	0.0615 µM (active)	0.134 µM (active)	2.32 µM (inactive)	0.0817 µM (active)	0.0933 µM (active)	0.445 µM (active)	0.124 µM (active)	0.149 µM (active)	0.0828 µM (active)	0.548 µM (active)	0.101 µM (active)	0.0255 µM (active)	0.0415 µM (active)	1.41 µM (inactive)	0.102 µM (active)	1.27 µM (inactive)
C/C1=C\CC[C@@]2(C)O[C@@H]2C[C@@H]2[C@H](C/C(C)=C/CC1)OC(=O)C21CCN=N1 (stereo not given in full)	> 100 µM (inactive)	> 75 µM (inactive)	> 75 µM (inactive)	37.8 µM (inactive)	21 µM (inactive)	> 75 µM (inactive)	27.9 µM (inactive)	> 75 µM (inactive)	> 75 µM (inactive)	38 µM (inactive)	> 75 µM (inactive)	> 75 µM (inactive)	> 100 µM (inactive)	39.6 µM (inactive)	> 75 µM (inactive)	> 75 µM (inactive)	> 75 µM (inactive)	> 75 µM (inactive)	> 75 µM (inactive)	> 100 µM (inactive)
CC1=COC2=C(C)C(=O)C(=O)c3c(C)ccc1c32 [MANSONONE F]	20.1 µM (inactive)	3.21 µM (inactive)	3.74 µM (inactive)	3.71 µM (inactive)	3.66 µM (inactive)	20.3 µM (inactive)	4.52 µM (inactive)	15.6 µM (inactive)	3.24 µM (inactive)	17.7 µM (inactive)	4.1 µM (inactive)	3.28 µM (inactive)	8.24 µM (inactive)	2.18 µM (inactive)	7.23 µM (inactive)	2.61 µM (inactive)	1.69 µM (inactive)	4.07 µM (inactive)	1.9 µM (inactive)	14.4 µM (inactive)
C=C1C(=O)O[C@H]2C/C(C)=C/CC[C@@]3(C)O[C@](C)(CC[C@@H]3I)[C@@H](I)C[C@@H]12	9.68 µM (inactive)	6.4 µM (inactive)	1.78 µM (inactive)	4.2 µM (inactive)	1.56 µM (inactive)	7.19 µM (inactive)	8.59 µM (inactive)	5.83 µM (inactive)	4.16 µM (inactive)	8.49 µM (inactive)	4.68 µM (inactive)	6.75 µM (inactive)	5.46 µM (inactive)	6.38 µM (inactive)	5.9 µM (inactive)	3.81 µM (inactive)	7.59 µM (inactive)	6.95 µM (inactive)	3.86 µM (inactive)	0.869 µM (active)
CC1OC(OC2C(O)COC(OC3C(C)OC(OC4C(OC(=O)[C@]56CCC(C)(C)C[C@@H]5C5=CCC7[C@@]8(C)C[C@H](O)[C@H](OC9OC(CO)C(O)C(O)C9O)[C@@](C)(CO)[C@@H]8CC[C@@]7(C)[C@]5(C)CC6)OCC(O)C4O)C(O)C3OC3OCC(O)(CO)C3O)C2O)C(O)C(O)C1O (stereo not given in full)	3.97 µM (inactive)	20.8 µM (inactive)	13.3 µM (inactive)	4.3 µM (inactive)	19.8 µM (inactive)	2.58 µM (inactive)	15.1 µM (inactive)	26.6 µM (inactive)	13.2 µM (inactive)	7.48 µM (inactive)	12.4 µM (inactive)	12.6 µM (inactive)	18.8 µM (inactive)	18.7 µM (inactive)	9.77 µM (inactive)	11.3 µM (inactive)	12 µM (inactive)	14.7 µM (inactive)	17.4 µM (inactive)	16.9 µM (inactive)
COc1ccc2nc3c(c(N)c2c1)C1CCC3C1(C)C (stereo not given)	25.1 µM (inactive)	38.2 µM (inactive)	42.9 µM (inactive)	52.1 µM (inactive)	35.9 µM (inactive)	39.3 µM (inactive)	16 µM (inactive)	16.4 µM (inactive)	15.3 µM (inactive)	> 100 µM (inactive)	22.5 µM (inactive)	24 µM (inactive)	22.7 µM (inactive)	31.2 µM (inactive)	18.9 µM (inactive)	25.5 µM (inactive)	24.3 µM (inactive)	> 100 µM (inactive)	33 µM (inactive)	25.3 µM (inactive)
COc1cc2c(cc1O)C(Cc1ccc(OCc3ccccc3)c(OCc3ccccc3)c1)N(C(=O)NCCc1ccccc1)CC2 (stereo not given)	78.5 µM (inactive)	> 100 µM (inactive)	> 100 µM (inactive)	> 100 µM (inactive)	> 100 µM (inactive)	> 100 µM (inactive)	> 100 µM (inactive)	> 100 µM (inactive)	> 100 µM (inactive)	> 100 µM (inactive)	> 100 µM (inactive)	> 100 µM (inactive)	16.4 µM (inactive)	> 100 µM (inactive)	> 100 µM (inactive)	> 100 µM (inactive)	> 100 µM (inactive)	> 100 µM (inactive)	> 100 µM (inactive)	> 100 µM (inactive)
Cc1ccc(S[C@@](C=O)(NC(=O)OCc2ccccc2)C(F)(F)F)cc1	65 µM (inactive)	24.7 µM (inactive)	18.5 µM (inactive)	26.7 µM (inactive)	21.3 µM (inactive)	26.1 µM (inactive)	29 µM (inactive)	22.9 µM (inactive)	19.3 µM (inactive)	44.3 µM (inactive)	20.4 µM (inactive)	19.6 µM (inactive)	23.8 µM (inactive)	29.9 µM (inactive)	36.8 µM (inactive)	21.8 µM (inactive)	26.4 µM (inactive)	21 µM (inactive)	28.8 µM (inactive)	18.6 µM (inactive)
CC1=NCCN=C(C)C1/N=N/c1ccc2[nH]c(C)nc2c1	0.912 µM (active)	20.5 µM (inactive)	25.9 µM (inactive)	11.7 µM (inactive)	20.7 µM (inactive)	18.5 µM (inactive)	22.1 µM (inactive)	4.7 µM (inactive)	14.2 µM (inactive)	23.3 µM (inactive)	11.7 µM (inactive)	12.7 µM (inactive)	12.7 µM (inactive)	18.2 µM (inactive)	11.3 µM (inactive)	14.9 µM (inactive)	16 µM (inactive)	10 µM (inactive)	8.53 µM (inactive)	20.3 µM (inactive)
CC(=O)N(C)c1ccc(Nc2cc(C)nc3ccc4nc[nH]c4c23)cc1 [ACODAZOLE HYDROCHLORIDE]	10.4 µM (inactive)	7.38 µM (inactive)	12.4 µM (inactive)	7.21 µM (inactive)	5.15 µM (inactive)	5.04 µM (inactive)	6.19 µM (inactive)	2.55 µM (inactive)	10.2 µM (inactive)	9.14 µM (inactive)	4.81 µM (inactive)	13.6 µM (inactive)	6.79 µM (inactive)	2.59 µM (inactive)	12.7 µM (inactive)	4.88 µM (inactive)	7.64 µM (inactive)	10.2 µM (inactive)	8.51 µM (inactive)	6.27 µM (inactive)
Cc1n(CC(C)C)c2c([n+]1C)C(=O)c1ccccc1C2=O	0.32 µM (active)	0.0479 µM (active)	0.0224 µM (active)	0.0255 µM (active)	0.0746 µM (active)	1.17 µM (inactive)	0.131 µM (active)	0.641 µM (active)	0.198 µM (active)	0.565 µM (active)	0.578 µM (active)	0.0486 µM (active)	0.0371 µM (active)	0.135 µM (active)	0.0513 µM (active)	0.0432 µM (active)	0.0957 µM (active)	0.0716 µM (active)	0.143 µM (active)	0.311 µM (active)
